Source: patent US9586966B2, “Piperazino[1,2-a]indol-1-ones and [1,4]diazepino[1,2-a]indol-one” (Hoffmann-La Roche Inc., priority 2013, dated 2017)

Columns and labels:
[1] = test system: human embryonic stem cell derived neural stem cells (NSCs); assay: Neural stem cell proliferation assay (neurogenesis assay, ATP levels by CellTiterGlo); assay type: cell-based; conditions: 96 h, concentration at which 150% activity of control (100%) is reached, NSC proliferation, ATP levels after 4 days incubation, dose response 8 μM to 8 nM
Procedure: Neural Stem Cell Proliferation Assay
Neurogenic properties of small molecules are determined based on the proliferation of human embryonic stem cell derived neural stem cells (NSCs) which were derived via a dual smad inhibition as previously described (Chambers, S. M., et al., Highly efficient neural conversion of human ES and iPS cells by dual inhibition of SMAD signaling, Nature biotechnology, 2009. 27(3): p. 275-80.)
Compounds respond is measured by the increase in cells based on ATP levels (Promega:CellTiterGlo®) after an incubation period of 4 days.
NSCs are thawed and expanded over 3 passages. On the 14th day, NSCs are seeded in Polyornithin/Laminin coated 384 well plates at a cell density of 21′000 cells/cm^2 in a media volume of 38 μl. 4 hours after cell seeding, compound solutions are added at a volume of 2 μl. Stock solutions of the compounds (water, 5% DMSO) are diluted to obtain a dose response (11 points, dilution factor is 2), ranging from 8 μM to 8 nM. Controls are run to consistently determine the neurogenic properties of the cells:
Negative (neutral) control is cell culture Media (final DMSO concentration: 0.25%).
1. cell culture Media+100 ng/ml FGF2 (final DMSO concentration: 0.1%)
2. cell culture Media+20 ng/ml EGF (final DMSO concentration: 0.1%)
3. cell culture Media+100 ng/ml Wnt3a (final DMSO concentration: 0.1%)
After 4 days incubation at 37° C., 5% CO2, the amount of ATP per well is quantified. The ATP concentration is proportional to the cell number. ATP is quantified by using the Promega CellTiterGlo® kit. The CellTiterGlo® reagents contain a cell lysis buffer, a thermo stable luciferase (UltraGlo™ recombinant luciferase), magnesium and luciferin. Luciferin reacts with ATP producing oxyluciferin, AMP and light. The luminescence signal is proportional to the ATP content.
The value of negative (neutral) control is determined for each assay plate by taking the average of 16 negative control wells. The neurogenic compound response is calculated for each compound as (compound/Negative Control)*100.
The values of EC150 from the dose response curve are determined for each test compound. The EC150 is the compound concentration at which 150% activity of control (100%) is reached.

melting point [°C] | Compound | EC (150% of control) [1] [µM]
161 | Cc1c2n(c3c(CCC(C)C)cc(F)cc13)CCNC2=O [Example 12, 8-Fluoro-10-methyl-6-(3-methyl-butyl)-3,4-dihydro-2H-pyrazino[1,2-a]indol-1-one] | 0.07
276 | Cc1c2n(c3c(N4CCOCC4)cc(C#N)cc13)CCNC2=O [Example 41, 10-Methyl-6-morpholin-4-yl-1-oxo-3,4-dihydro-2H-pyrazino[1,2-a]indole-8-carbonitrile] | 0.092
259 | C#Cc1cc(F)cc2c(C)c3n(c12)CCNC3=O [Example 20, 6-Ethynyl-8-fluoro-10-methyl-3,4-dihydro-2H-pyrazino[1,2-a]indol-1-one] | 0.04
386 | Cc1c2n(c3c(N4CCS(=O)(=O)CC4)cc(Cl)cc13)CCNC2=O [Example 17, 8-Chloro-6-(1,1-dioxo-1λ^6-thiomorpholin-4-yl)-10-methyl-3,4-dihydro-2H-pyrazino[1,2-a]indol-1-one] | 0.011
199 | CC(C)Cc1cc(C#N)cc2cc3n(c12)CCCNC3=O [Example 40, 7-(2-Methylpropyl)-1-oxo-2,3,4,5-tetrahydro-[1,4]diazepino[1,2-a]indole-9-carbonitrile] | 0.55
251 | Cc1c2n(c3c(C)cc(Cl)cc13)CCNC2=O [Example 7, 8-Chloro-6,10-dimethyl-3,4-dihydro-2H-pyrazino[1,2-a]indol-1-one] | 0.11
172 | C=CCc1cc(F)cc2c(C)c3n(c12)CCNC3=O [Example 11, 6-Allyl-8-fluoro-10-methyl-3,4-dihydro-2H-pyrazino[1,2-a]indol-1-one] | 0.14
166 | CC(C)Cc1cc(OC(F)(F)F)cc2cc3n(c12)CCNC3=O [Example 37, 6-(2-Methylpropyl)-8-(trifluoromethoxy)-3,4-dihydro-2H-pyrazino[1,2-a]indol-1-one] | 0.89
198 | Cc1c2n(c3c(C)cc(Cl)cc13)CCCNC2=O [Example 39, 9-Chloro-7,11-dimethyl-2,3,4,5-tetrahydro-[1,4]diazepino[1,2-a]indol-1-one] | 0.36
263 | Cc1cc(Cl)cc2cc3n(c12)CCNC3=O [Example 27, 8-Chloro-6-methyl-3,4-dihydro-2H-pyrazino[1,2-a]indol-1-one] | 5.1
237 | Cc1c2n(c3c(N4CC5(COC5)C4)cc(F)cc13)CCNC2=O [Example 16, 8-Fluoro-10-methyl-6-(2-oxa-6-aza-spiro[3.3]hept-6-yl)-3,4-dihydro-2H-pyrazino[1,2-a]indol-1-one] | 0.23
239 | Cc1c2n(c3c(OCC(F)(F)F)cc(F)cc13)CCNC2=O [Example 24, 8-Fluoro-10-methyl-6-(2,2,2-trifluoroethoxy)-3,4-dihydro-2H-pyrazino[1,2-a]indol-1-one] | 0.17
175 | COc1cc(CC(C)C)c2c(c1)cc1n2CCNC1=O [Example 36, 8-Methoxy-6-(2-methylpropyl)-3,4-dihydro-2H-pyrazino[1,2-a]indol-1-one] | 4.1
157 | CC(C)Cc1cc(F)cc2cc3n(c12)CCCNC3=O [Example 22, 9-Fluoro-7-isobutyl-2,3,4,5-tetrahydro-[1,4]diazepino[1,2-a]indol-1-one] | 0.11
280 | N#Cc1cc(N2CCOCC2)c2c(c1)cc1n2CCNC1=O [Example 46, 6-Morpholin-4-yl-1-oxo-3,4-dihydro-2H-pyrazino[1,2-a]indole-8-carbonitrile] | 0.04
265 | Cc1c2n(c3c(C#N)cc(F)cc13)CCNC2=O [Example 29, 8-Fluoro-10-methyl-1-oxo-3,4-dihydro-2H-pyrazino[1,2-a]indole-6-carbonitrile] | 0.5
208 | Cc1c2n(c3c(C)cc(F)cc13)CCNC2=O [Example 5, 8-Fluoro-6,10-dimethyl-3,4-dihydro-2H-pyrazino[1,2-a]indol-1-one] | 0.074

melting point [°C] | Compound | EC (150% of control) [1] [µM]
387 | Cc1c2n(c3c(N4CCS(=O)(=O)CC4)cc(F)cc13)CCNC2=O [Example 9, 6-(1,1-Dioxo-1λ^6-thiomorpholin-4-yl)-8-fluoro-10-methyl-3,4-dihydro-2H-pyrazino[1,2-a]indol-1-one] | 0.015
226 | Cc1c2n(c3c(N4CCOCC4)cc(F)cc13)CCNC2=O [Example 6, 8-Fluoro-10-methyl-6-morpholin-4-yl-3,4-dihydro-2H-pyrazino[1,2-a]indol-1-one] | 0.21
227 | Cc1c2n(c3c(N4CCOCC4)cc(C#N)cc13)CCCNC2=O [Example 44, 11-Methyl-7-morpholin-4-yl-1-oxo-2,3,4,5-tetrahydro-[1,4]diazepino[1,2-a]indole-9-carbonitrile] | 0.046
229 | CC(C)Cc1cc(F)cc2cc3n(c12)CCNC3=O [Example 23, 8-Fluoro-6-(2-methylpropyl)-3,4-dihydro-2H-pyrazino[1,2-a]indol-1-one] | 0.02
393 | Cc1c2n(c3c(N4CCS(=O)(=O)CC4)cc(C#N)cc13)CCCNC2=O [Example 42, 7-(1,1-Dioxo-1,4-thiazinan-4-yl)-11-methyl-1-oxo-2,3,4,5-tetrahydro-[1,4]diazepino[1,2-a]indole-9-carbonitrile] | 0.077
160 | Cc1cc(CC(C)C)c2c(c1)cc1n2CCCNC1=O [Example 32, 9-Methyl-7-(2-methylpropyl)-2,3,4,5-tetrahydro-[1,4]diazepino[1,2-a]indol-1-one] | 2.6
260.5 | CC(C)Cc1cc(C#N)cc2cc3n(c12)CCNC3=O [Example 21, 6-Isobutyl-1-oxo-1,2,3,4-tetrahydro-pyrazino[1,2-a]indole-8-carbonitrile] | 0.14
400 | Cc1c2n(c3c(N4CCS(=O)(=O)CC4)cc(C#N)cc13)CCNC2=O [Example 19, 6-(1,1-Dioxo-1λ^6-thiomorpholin-4-yl)-10-methyl-1-oxo-1,2,3,4-tetrahydro-pyrazino[1,2-a]indole-8-carbonitrile] | 0.008
177 | CCc1cc(F)cc2c(C)c3n(c12)CCNC3=O [Example 8, 6-Ethyl-8-fluoro-10-methyl-3,4-dihydro-2H-pyrazino[1,2-a]indol-1-one] | 0.019
207 | Cc1c2n(c3c(N4CCOCC4)cc(Cl)cc13)CCNC2=O [Example 18, 8-Chloro-10-methyl-6-morpholin-4-yl-3,4-dihydro-2H-pyrazino[1,2-a]indol-1-one] | 0.039
221 | N#Cc1cc(N2CCOCC2)c2c(c1)cc1n2CCCNC1=O [Example 45, 7-Morpholin-4-yl-1-oxo-2,3,4,5-tetrahydro-[1,4]diazepino[1,2-a]indole-9-carbonitrile] | 0.24
236 | CC(C)Cc1cc(Cl)cc2cc3n(c12)CCNC3=O [Example 26, 8-Chloro-6-(2-methylpropyl)-3,4-dihydro-2H-pyrazino[1,2-a]indol-1-one] | 0.16
191 | CCc1cc(Cl)cc2c(C)c3n(c12)CCNC3=O [Example 10, 8-Chloro-6-ethyl-10-methyl-3,4-dihydro-2H-pyrazino[1,2-a]indol-1-one] | 0.34
182 | Cc1cc(CC(C)C)c2c(c1)cc1n2CCNC1=O [Example 31, 8-Methyl-6-(2-methylpropyl)-3,4-dihydro-2H-pyrazino[1,2-a]indol-1-one] | 1.16
253 | Cc1cc(C)c2c(c1)cc1n2CCNC1=O [Example 33, 6,8-Dimethyl-3,4-dihydro-2H-pyrazino[1,2-a]indol-1-one] | 4.9
176 | Cc1c2n(c3c(CC(C)C)cc(Cl)cc13)CCCNC2=O [Example 38, 9-Chloro-11-methyl-7-(2-methylpropyl)-2,3,4,5-tetrahydro-[1,4]diazepino[1,2-a]indol-1-one] | 0.37
